Source: US6525178B2, “PGC-1, a novel brown fat PPARgamma coactivator” (Dana-Farber Cancer Institute, priority 1997, dated 2003)
One block for each molecule: values may come before it.

How the values were obtained:
PPARα = biological target: T1, PPARα (Homo sapiens, UniProt Q07869); assay: In vitro binding of GST-PGC-1 to in vitro-translated nuclear receptor; conditions: ligand 1 μM
T1 construct: made in house; host or cells: receptor: reticulocyte lysate in vitro translation (Promega TNT); GST-PGC-1: E. coli
T1 sequence (Q07869 1-468): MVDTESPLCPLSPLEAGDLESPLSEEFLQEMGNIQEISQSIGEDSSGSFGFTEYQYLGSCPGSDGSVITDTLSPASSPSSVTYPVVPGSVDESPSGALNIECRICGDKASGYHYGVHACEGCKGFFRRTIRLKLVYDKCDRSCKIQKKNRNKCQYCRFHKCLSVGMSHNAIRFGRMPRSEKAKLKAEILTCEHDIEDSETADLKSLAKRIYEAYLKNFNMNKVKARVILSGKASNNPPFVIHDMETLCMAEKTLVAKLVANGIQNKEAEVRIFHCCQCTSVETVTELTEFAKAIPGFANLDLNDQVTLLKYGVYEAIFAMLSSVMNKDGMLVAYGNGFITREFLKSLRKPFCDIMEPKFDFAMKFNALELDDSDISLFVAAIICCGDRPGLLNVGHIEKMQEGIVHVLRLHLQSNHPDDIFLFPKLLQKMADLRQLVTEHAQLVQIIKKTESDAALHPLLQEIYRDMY
T1 sequence (O70343 36-797 partner limits assumed): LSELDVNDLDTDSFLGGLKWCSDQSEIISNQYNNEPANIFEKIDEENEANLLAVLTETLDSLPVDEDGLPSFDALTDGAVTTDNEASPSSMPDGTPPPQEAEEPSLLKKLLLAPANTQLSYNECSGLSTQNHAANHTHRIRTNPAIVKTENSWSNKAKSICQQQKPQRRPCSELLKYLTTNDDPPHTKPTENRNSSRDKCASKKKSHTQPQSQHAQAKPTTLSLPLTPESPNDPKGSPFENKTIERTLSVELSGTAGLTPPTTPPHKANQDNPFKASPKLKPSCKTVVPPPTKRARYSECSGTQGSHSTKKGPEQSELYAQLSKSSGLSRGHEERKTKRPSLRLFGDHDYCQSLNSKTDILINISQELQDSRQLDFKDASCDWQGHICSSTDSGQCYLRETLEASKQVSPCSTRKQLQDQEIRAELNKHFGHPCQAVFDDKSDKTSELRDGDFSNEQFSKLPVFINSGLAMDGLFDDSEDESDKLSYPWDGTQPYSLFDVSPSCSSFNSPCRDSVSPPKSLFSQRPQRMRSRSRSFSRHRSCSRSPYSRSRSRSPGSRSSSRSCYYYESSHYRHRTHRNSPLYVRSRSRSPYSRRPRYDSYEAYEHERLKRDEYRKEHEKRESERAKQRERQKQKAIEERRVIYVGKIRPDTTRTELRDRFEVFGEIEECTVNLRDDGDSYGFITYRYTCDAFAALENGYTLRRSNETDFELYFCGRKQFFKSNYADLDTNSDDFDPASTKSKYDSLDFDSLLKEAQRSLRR
Description: (§1) The assays were carried out as follows.

PPARδ = biological target: T2, PPARδ (Homo sapiens, UniProt Q03181); assay: as above; conditions: ligand 1 μM
T2 construct: made in house; host or cells: receptor: reticulocyte lysate in vitro translation (Promega TNT); GST-PGC-1: E. coli
T2 sequence (Q03181 1-441): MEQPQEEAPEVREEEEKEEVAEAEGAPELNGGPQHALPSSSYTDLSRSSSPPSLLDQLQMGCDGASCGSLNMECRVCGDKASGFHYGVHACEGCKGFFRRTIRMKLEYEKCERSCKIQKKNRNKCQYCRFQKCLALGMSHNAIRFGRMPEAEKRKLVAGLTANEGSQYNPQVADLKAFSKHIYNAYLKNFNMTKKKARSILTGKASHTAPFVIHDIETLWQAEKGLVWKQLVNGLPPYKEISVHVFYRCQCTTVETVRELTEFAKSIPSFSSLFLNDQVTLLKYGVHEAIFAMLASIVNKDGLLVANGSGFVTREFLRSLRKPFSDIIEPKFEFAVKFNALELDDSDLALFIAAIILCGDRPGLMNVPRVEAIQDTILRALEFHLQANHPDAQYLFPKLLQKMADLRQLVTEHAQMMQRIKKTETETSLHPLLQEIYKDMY
T2 sequence (O70343 36-797 partner limits assumed): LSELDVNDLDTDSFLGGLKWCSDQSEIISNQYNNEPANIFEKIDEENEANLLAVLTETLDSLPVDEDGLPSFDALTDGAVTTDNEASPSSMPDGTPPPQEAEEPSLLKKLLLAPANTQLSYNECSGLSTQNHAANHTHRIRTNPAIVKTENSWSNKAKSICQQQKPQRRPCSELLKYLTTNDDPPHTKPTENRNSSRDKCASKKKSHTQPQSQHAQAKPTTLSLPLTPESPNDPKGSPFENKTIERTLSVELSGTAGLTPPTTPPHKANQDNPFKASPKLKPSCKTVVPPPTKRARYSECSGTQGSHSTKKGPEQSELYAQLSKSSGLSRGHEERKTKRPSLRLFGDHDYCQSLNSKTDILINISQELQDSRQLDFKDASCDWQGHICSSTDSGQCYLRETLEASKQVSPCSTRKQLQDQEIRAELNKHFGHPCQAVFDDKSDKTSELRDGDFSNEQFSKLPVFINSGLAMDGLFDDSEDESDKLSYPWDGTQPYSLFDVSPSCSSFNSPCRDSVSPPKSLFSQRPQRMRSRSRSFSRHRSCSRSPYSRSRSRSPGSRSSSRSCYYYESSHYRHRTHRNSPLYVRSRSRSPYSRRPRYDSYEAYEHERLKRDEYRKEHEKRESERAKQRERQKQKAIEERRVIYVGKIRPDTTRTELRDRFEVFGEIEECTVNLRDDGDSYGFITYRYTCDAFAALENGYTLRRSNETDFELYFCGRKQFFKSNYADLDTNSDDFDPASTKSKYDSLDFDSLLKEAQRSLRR
Description: as §1

HIB 1B brown fat cells = assay: Northern analysis of PGC-1 and UCP-1 mRNA in treated HIB 1B brown fat cells; assay type: cell-based, mouse; conditions: HIB 1B cells, 1 μM, 10 hr
Text: Cold is sensed in the central nervous system and results in increased sympathetic output to peripheral tissues, including muscle and brown fat Himms-Hagen (1989) Can. J. Physiol Pharmcol. 67:394-401). Cold exposure can be mimicked, in terms of brown adipocyte precursor cell growth and the induction of UCP-1, by exposure of cultured brown fat cells to β-adrenergic agonists (Rehnmark et al. (1990) J. Biol. Chem. 25:16464-16471). To determine if PGC-1 gene expression is also sensitive to β-adrenergic agonists, HIB 1B brown fat cells were treated with isoproterenol (1 μM), a nonsubtype selective β agonist, for 10 hr. Total cellular RNA was isolated and analyzed using PGC-1 and UCP-1 cDNA probes.
Briefly, HIB 1B brown fat preadipocytes were differentiated as described herein. After 6 days, cells were approximately 80% differentiated.

retinoic acid receptor = biological target: T3, retinoic acid receptor (Homo sapiens, UniProt P10276); assay: In vitro binding of GST-PGC-1 to in vitro-translated nuclear receptor; conditions: ligand 1 μM
T3 sequence (P10276 1-462): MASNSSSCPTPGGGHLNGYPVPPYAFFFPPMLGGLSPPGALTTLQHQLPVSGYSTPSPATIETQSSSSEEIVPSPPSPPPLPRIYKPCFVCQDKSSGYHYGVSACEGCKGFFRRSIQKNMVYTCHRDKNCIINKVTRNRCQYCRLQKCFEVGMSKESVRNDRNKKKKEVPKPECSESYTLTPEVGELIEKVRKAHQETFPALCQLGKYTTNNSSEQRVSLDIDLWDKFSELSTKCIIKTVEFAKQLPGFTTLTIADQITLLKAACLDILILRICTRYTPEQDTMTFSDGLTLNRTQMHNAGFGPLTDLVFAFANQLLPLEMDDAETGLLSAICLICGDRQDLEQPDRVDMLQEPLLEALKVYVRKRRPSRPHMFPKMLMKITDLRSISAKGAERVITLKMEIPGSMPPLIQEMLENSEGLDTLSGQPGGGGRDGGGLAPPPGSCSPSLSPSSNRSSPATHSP
T3 sequence (O70343 36-797 partner limits assumed): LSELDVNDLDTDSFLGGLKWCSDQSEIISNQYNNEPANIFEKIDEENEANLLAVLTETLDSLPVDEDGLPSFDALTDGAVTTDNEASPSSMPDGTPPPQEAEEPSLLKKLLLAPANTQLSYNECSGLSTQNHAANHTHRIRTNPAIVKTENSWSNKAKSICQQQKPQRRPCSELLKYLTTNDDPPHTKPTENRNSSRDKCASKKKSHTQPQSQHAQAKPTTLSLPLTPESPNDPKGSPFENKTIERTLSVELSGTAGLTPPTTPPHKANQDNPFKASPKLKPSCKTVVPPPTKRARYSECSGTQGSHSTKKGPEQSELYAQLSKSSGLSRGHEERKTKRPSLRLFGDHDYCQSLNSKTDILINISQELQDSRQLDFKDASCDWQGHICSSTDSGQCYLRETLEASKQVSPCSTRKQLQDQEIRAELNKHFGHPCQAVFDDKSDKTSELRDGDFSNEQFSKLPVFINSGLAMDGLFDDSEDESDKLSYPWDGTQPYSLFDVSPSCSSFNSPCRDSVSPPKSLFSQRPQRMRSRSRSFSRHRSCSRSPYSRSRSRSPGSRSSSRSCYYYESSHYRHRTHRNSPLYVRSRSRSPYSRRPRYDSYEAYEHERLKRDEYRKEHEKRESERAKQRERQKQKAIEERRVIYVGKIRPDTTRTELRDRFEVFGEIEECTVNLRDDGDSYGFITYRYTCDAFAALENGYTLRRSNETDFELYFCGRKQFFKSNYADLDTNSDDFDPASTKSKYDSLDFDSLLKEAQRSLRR
Description: These fusion proteins were expressed, and purified from E. coli on beads containing approximately 1 μg of protein (either GST, or alone, or fused to PGC-1), 30 μl was resuspended i the binding buffer (20 mM HEPES [pH 7.7], 75 mM KCl, 0.1 mM EDTA, 2.5 mM MgCl2, 0.05% NP40,2 mM DTT, 10% glycerol).
The assays were carried out as follows. […] After electrophoresis, fixation, and enhancement, the radiolabeled proteins were visualized by autoradiography.

PPARγ = assay: Binding of in vitro-translated PGC-1 C-terminal deletions to immobilized PPARγ fusion protein; parameters: species or system mouse; conditions: 35S-labelled PGC-1 deletions
PPARγ, sequence (P37238 183-505 limits assumed): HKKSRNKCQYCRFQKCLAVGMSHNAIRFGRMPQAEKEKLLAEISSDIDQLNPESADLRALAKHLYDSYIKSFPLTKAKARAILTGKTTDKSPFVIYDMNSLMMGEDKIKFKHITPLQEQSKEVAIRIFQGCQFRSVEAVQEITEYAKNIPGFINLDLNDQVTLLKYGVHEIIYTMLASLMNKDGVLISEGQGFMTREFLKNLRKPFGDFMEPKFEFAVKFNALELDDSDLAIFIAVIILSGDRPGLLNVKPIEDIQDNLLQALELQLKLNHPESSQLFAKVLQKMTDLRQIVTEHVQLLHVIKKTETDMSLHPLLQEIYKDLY
Text: The interaction between nuclear receptors and certain coactivators such as SRC-1 or CBP is ligand dependent (Kamai et al. (1996) Cell 84:403-414) and involves an LXXLL (SEQ ID NO:3) motif in the coactivators and the C-terminal AF-2 domain in the receptors (Heery et al. (1997) Nature 387:733-736; Torchia et al. (1997) Nature 387:677-684). To identify the domains responsible for PGC-1-PPARγ interactions, different C-terminal deletions of PGC-1 were generated as reticulocyte translation products and mixed with a […] fusion protein. Deletions of PGC-1 were made using specific restriction sites in the PGC-1 cDNA closed in pBluescript. The following restriction enzymes were used for these deletions: full-length Xhol (aa-1-797), Haell (aa 1-675) Ncol (aa 1-503), Xbal (aa 1-403), Kpnl (aa 1-338), and Stul (aa 1-292). These were then translated into vitro with an [^35S]methionine-label. One microliter of each in vitro translation reaction was resolved by SDS-PAGE and autoradiographed.
FIG. 4 summarizes the input of both the full-length PGC-1(1-797) and the 1-675 deletion which bind to the immobilized PPARγ.

- ligand dependency of PGC-1 interaction with PPARα (PPARα): slight ligand dependency
Molecule: CCCCC/C=C\C[C@@H](O)/C=C/C=C/C=C\[C@@H](O)CCCC(=O)O [leukotriene-4]

- ligand dependency of PGC-1 interaction with PPARδ (PPARδ): slight ligand dependency
Molecule: CCCCC[C@H](O)/C=C/[C@@H]1[C@H]2C/C(=C/CCCC(=O)O)C[C@H]2C[C@H]1O [carboprostacyclin]

Molecule: CC(C)NCC(O)c1ccc(O)c(O)c1 (stereo not shown) [isoproterenol]
- PGC-1 mRNA (HIB 1B brown fat cells): sharp increase
- UCP-1 mRNA (HIB 1B brown fat cells): sharp increase

- ligand dependency of PGC-1 interaction with the retinoic acid receptor (retinoic acid receptor): strong ligand dependency
Molecule: CC1=C(/C=C/C(C)=C/C=C/C(C)=C/C(=O)O)C(C)(C)CCC1 [all-trans retinoic acid]

B1: PGC-1 1-292: C-terminal deletion of PGC-1, aa 1-292, still contains the LXXLL motif (protein)
chain: MAWDMCSQDSVWSDIECAALVGEDQPLCPDLPELDLSELDVNDLDTDSFLGGLKWCSDQSEIISNQYNNEPANIFEKIDEENEANLLAVLTETLDSLPVDEDGLPSFDALTDGAVTTDNEASPSSMPDGTPPPQEAEEPSLLKKLLLAPANTQLSYNECSGLSTQNHAANHTHRIRTNPAIVKTENSWSNKAKSICQQQKPQRRPCSELLKYLTTNDDPPHTKPTENRNSSRDKCASKKKSHTQPQSQHAQAKPTTLSLPLTPESPNDPKGSPFENKTIERTLSVELSGTAG
- percentage of input material that bound to PPARγ (PPARγ): completely loses the ability to interact with PPARγ

- percentage of input material that bound to PPARγ (PPARγ): 18%
B2: PGC-1 1-503: C-terminal deletion of PGC-1, aa 1-503, lacks the SR and RNA-binding domains (protein)
chain: MAWDMCSQDSVWSDIECAALVGEDQPLCPDLPELDLSELDVNDLDTDSFLGGLKWCSDQSEIISNQYNNEPANIFEKIDEENEANLLAVLTETLDSLPVDEDGLPSFDALTDGAVTTDNEASPSSMPDGTPPPQEAEEPSLLKKLLLAPANTQLSYNECSGLSTQNHAANHTHRIRTNPAIVKTENSWSNKAKSICQQQKPQRRPCSELLKYLTTNDDPPHTKPTENRNSSRDKCASKKKSHTQPQSQHAQAKPTTLSLPLTPESPNDPKGSPFENKTIERTLSVELSGTAGLTPPTTPPHKANQDNPFKASPKLKPSCKTVVPPPTKRARYSECSGTQGSHSTKKGPEQSELYAQLSKSSGLSRGHEERKTKRPSLRLFGDHDYCQSLNSKTDILINISQELQDSRQLDFKDASCDWQGHICSSTDSGQCYLRETLEASKQVSPCSTRKQLQDQEIRAELNKHFGHPCQAVFDDKSDKTSELRDGDFSNEQFSKLPVFINSG
